Publication PMC4301037, “Identification and Structure–Function Analysis of Subfamily Selective G Protein-Coupled Receptor Kinase Inhibitors” (ACS Chemical Biology, 2014)

What was measured:
bovine GRK5 = target: T1, bovine GRK5 (Bos taurus, UniProt P43249); assay: Primary DSF inhibitor screen, GRK5; assay type: binding; details: 10 μM compound; for ΔTm at 10 µM: read-out: ΔTm, primary screen, GRK5
T1 construct: when using full-length kinases as the receptor[37] instead of isolated kinase domains; made in house
T1 sequence (P43249 whole entry, the tested form may be a part): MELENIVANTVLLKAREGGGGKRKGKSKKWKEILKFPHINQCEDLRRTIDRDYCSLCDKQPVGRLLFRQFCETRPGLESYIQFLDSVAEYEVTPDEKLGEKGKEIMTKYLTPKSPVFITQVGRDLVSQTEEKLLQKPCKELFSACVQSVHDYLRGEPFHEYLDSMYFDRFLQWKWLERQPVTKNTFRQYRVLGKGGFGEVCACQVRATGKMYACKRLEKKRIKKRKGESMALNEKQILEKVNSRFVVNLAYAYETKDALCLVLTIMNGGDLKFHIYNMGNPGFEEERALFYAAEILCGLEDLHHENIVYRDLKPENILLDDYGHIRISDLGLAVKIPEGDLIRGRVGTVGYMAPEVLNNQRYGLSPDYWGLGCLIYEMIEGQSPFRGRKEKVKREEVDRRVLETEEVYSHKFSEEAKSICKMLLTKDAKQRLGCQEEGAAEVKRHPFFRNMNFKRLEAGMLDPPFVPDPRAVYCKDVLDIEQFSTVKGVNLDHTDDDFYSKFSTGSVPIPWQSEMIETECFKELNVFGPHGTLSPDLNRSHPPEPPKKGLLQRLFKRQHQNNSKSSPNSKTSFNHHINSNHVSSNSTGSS

GRK1 [1] = target: T2, GRK1 (Bos taurus, UniProt P28327); assay: DSF retest (confirmation), GRK1; assay type: binding, bovine; details: for GRK1 Tm: 0.2 mg mL^–1 kinase; for GRK1 ΔTm: relative to intrinsic melting point of the kinase
T2 construct: Bovine GRK1_1–535, bovine and human GRK2S670A; made in house
T2 sequence (P28327 1-535): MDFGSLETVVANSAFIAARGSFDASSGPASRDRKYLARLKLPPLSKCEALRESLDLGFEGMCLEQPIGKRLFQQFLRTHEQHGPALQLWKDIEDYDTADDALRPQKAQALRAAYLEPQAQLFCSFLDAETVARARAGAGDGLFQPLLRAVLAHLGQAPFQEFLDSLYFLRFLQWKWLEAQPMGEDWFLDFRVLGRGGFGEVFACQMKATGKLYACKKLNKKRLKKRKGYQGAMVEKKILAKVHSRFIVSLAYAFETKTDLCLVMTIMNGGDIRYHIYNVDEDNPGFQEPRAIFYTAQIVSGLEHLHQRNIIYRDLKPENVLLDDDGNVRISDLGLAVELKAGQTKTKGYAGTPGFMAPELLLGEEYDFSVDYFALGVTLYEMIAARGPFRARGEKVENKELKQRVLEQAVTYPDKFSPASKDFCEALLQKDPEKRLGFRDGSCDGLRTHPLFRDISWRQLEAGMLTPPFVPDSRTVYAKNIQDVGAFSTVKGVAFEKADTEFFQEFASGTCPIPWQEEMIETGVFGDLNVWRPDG

GRK2 [2] = target: T3, GRK2 (Homo sapiens, UniProt P25098, S670A); assay: DSF retest (confirmation), GRK2; assay type: binding; details: for GRK2 Tm: 0.2 mg mL^–1 kinase; for GRK2 ΔTm: relative to intrinsic melting point of the kinase
T3 construct: made in house
T3 sequence (P25098 1-689 S670A): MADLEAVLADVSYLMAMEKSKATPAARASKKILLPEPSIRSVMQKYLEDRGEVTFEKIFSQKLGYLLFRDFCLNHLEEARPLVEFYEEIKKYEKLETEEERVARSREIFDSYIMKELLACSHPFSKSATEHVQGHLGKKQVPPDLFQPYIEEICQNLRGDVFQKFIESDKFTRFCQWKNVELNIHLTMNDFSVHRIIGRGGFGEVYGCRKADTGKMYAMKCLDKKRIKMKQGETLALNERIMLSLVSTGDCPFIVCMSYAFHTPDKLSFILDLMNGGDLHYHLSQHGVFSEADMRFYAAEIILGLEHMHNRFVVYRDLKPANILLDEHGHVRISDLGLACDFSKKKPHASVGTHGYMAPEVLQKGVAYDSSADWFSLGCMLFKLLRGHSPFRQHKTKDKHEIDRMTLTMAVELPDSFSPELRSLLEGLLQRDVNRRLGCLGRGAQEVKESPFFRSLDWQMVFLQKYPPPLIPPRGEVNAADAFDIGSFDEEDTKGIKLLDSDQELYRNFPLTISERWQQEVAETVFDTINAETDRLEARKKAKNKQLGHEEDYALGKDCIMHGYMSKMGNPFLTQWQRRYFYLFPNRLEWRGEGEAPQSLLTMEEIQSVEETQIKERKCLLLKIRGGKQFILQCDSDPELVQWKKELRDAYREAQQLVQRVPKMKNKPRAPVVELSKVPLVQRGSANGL

GRK5 [3] = target: T4, GRK5 (Bos taurus, UniProt P43249); assay: DSF retest (confirmation), GRK5; assay type: binding, bovine; details: for GRK5 Tm: 0.2 mg mL^–1 kinase; for GRK5 ΔTm: relative to intrinsic melting point of the kinase
T4 construct: when using full-length kinases as the receptor[37] instead of isolated kinase domains; made in house
T4 sequence (P43249 whole entry, the tested form may be a part): as the sequence (P43249 whole entry, the tested form may be a part) above

protein kinase A (PKA) = target: T5, protein kinase A (PKA) (Mus musculus, UniProt P05132); assay: DSF retest (confirmation), PKA; assay type: binding; details: for PKA Tm: 0.2 mg mL^–1 kinase; for PKA ΔTm: relative to intrinsic melting point of the kinase
T5 construct: His tag (inferred from pET15b vector and Ni-NTA column) (N); host or cells: E. coli Rosetta(DE3)pLysS
Experimental: Fourteen compounds (Figure 1a–c), including all GRK2 hits except staurosporine, and the most stabilizing pyrrolopyrimidine-containing compounds were obtained from GSK and retested using DSF on GRKs representing each vertebrate subfamily (GRK1, 2, and 5) (Table 1). […] The ability of these compounds to shift the Tm of the related AGC family kinase member protein kinase A (PKA) was also assessed (Table 1). In no case was ΔTm greater for PKA than for one of the tested GRKs. […]. There was no correlation for GRK1 (Figure 2c).
DSF was conducted using a ThermoFluor plate reader (Johnson & Johnson) in a buffer containing 20 mM HEPES, pH 7.0, 5 mM MgCl2, 2 mM DTT, and 1 mM CHAPS with 0.2 mg mL^–1 final concentration of GRK or PKA and 100 μM 1-anilinonaphthalene-8-sulfonic acid.[14]

GRK1 [4] = target: T2, GRK1; assay: In vitro phosphorylation assay (tubulin, 5 μM ATP), GRK1; assay type: biochemical, bovine; details: for IC50: read-out: GRK1 log IC50 (converted)
GRK2 [5] = target: T6, GRK2 (Bos taurus, UniProt P21146, S670A); assay: In vitro phosphorylation assay (tubulin, 5 μM ATP), GRK2; assay type: biochemical, bovine; details: for IC50: read-out: GRK2 log IC50 (converted)
T6 construct: made in house
T6 sequence (P21146 1-689 S670A): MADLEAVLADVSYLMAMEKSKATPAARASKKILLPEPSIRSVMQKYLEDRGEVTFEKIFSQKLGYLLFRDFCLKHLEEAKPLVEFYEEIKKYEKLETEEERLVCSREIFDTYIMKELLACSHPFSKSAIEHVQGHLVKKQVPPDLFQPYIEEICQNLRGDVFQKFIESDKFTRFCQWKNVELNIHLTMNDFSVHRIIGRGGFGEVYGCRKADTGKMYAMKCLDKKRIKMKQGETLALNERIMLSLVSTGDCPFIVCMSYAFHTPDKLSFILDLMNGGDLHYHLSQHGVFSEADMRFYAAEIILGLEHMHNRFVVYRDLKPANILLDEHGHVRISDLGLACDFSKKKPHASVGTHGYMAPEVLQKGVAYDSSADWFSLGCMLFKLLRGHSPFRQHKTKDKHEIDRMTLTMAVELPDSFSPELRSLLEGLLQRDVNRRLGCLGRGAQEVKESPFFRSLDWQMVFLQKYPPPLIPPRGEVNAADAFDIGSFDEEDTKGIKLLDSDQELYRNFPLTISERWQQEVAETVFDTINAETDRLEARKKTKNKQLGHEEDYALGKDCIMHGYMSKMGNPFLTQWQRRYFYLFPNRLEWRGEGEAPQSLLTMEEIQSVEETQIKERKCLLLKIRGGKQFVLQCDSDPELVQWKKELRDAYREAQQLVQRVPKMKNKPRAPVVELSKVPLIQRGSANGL

GRK5 [6] = target: T4, GRK5; assay: In vitro phosphorylation assay (tubulin, 5 μM ATP), GRK5; assay type: biochemical, bovine; details: for IC50: read-out: GRK5 log IC50 (converted)
PKA = target: T7, PKA (Mus musculus, UniProt P05132); assay: PKA inhibition assay (ADP-Glo, CREBtide, 100 μM ATP); assay type: biochemical; details: for IC50: logarithm of IC50 (−3.3 corresponds to 0.5 mM, footnote c), 438 nM PKA, 100 μM ATP, CREBtide, read-out: PKA log IC50 (converted)
T7 construct: His tag (inferred from pET15b vector and Ni-NTA column) (N); host or cells: E. coli Rosetta(DE3)pLysS

GRK1, 2, and 5 and PKA = assay: Ssel selectivity score calculated from inhibition of GRK1, 2, 5 and PKA; details: selectivity score from inhibition of GRK1, 2, 5 and PKA; <0.5 selective
224 kinases = system: 224 kinases; set-up: method as in ChEMBL database; details: ref ChEMBL database; cited from earlier work
human GRK2S670A = target: T8, human GRK2S670A (Homo sapiens, UniProt P25098, S670A); assay: Primary DSF (differential scanning fluorimetry) inhibitor screen, GRK2; assay type: binding; details: 10 μM compound; for ΔTm at 10 µM: read-out: ΔTm, primary screen, GRK2; for rank in the primary screen, GRK2: rank ordering of compounds in primary DSF screen
T8 construct: when using full-length kinases as the receptor[37] instead of isolated kinase domains; made in house
T8 sequence (P25098 1-689 S670A): T3 sequence (P25098 1-689 S670A)

ROCK1 = details: relative to GSK180736A (substitution effect); cited from earlier work
[7] = 2 μM kinase, relative to DMSO control

Row | SMILES | ΔTm at 10 µM (bovine GRK5; [7]) [°C] | GRK1 Tm (GRK1 [1]) [°C] | GRK1 ΔTm (GRK1 [1]) [°C] | GRK2 Tm (GRK2 [2]) [°C] | GRK2 ΔTm (GRK2 [2]) [°C] | GRK5 Tm (GRK5 [3]) [°C] | GRK5 ΔTm (GRK5 [3]) [°C] | PKA Tm (protein kinase A (PKA)) [°C] | PKA ΔTm (protein kinase A (PKA)) [°C] | IC50 (GRK1 [4]) [µM] | IC50 (GRK2 [5]) [µM] | GRK2 fold (increase in potency relative to paroxetine) (GRK2 [5]) [fold] | IC50 (GRK5 [6]) [µM] | GRK5 fold (increase in potency relative to paroxetine) (GRK5 [6]) [fold] | IC50 (PKA) [µM] | Ssel (GRK1, 2, and 5 and PKA) | inhibition pattern in kinase cross-screening, in words (224 kinases) | ΔTm at 10 µM (human GRK2S670A; [7]) [°C] | rank in the primary screen, GRK2 (human GRK2S670A) | other results
1 | Fc1cccc(COc2ccc(Nc3ncnc4cc(-c5ccc[nH]5)sc34)cc2Cl)c1 [GW693881A] | 6.93 | 24.8 | 4.9 | 40.0 | 2.5 | 27.7 | 0.9 | 47.4 | 2.0 | > 1000 | 200 | 0.0063 | 100 | 1.3 | > 501 | 1.005 | strong inhibition of many of the 221 kinases evaluated |  |  | ΔTm, primary screen, GRK5 (bovine GRK5; [7]): 6.9 °C; rank in the primary screen, GRK5 (bovine GRK5; rank ordering of compounds in primary DSF screen): 12
2 | CCn1c(-c2nonc2N)nc2c(C#CC(C)(C)O)nc(O[C@@H](CN)c3ccccc3)cc21 [GSK1007102B] | 3.43 | 26.7 | 6.8 | 49.3 | 11.8 | 28.7 | 2.0 | 52.2 | 6.8 | 63.1 | 1 | 1.3 | 3.16 | 40 | 0.501 | 0.917 | strong inhibition of many of the 221 kinases evaluated | 5.41 | 1 | ΔTm, primary screen, GRK2 (human GRK2S670A; [7]): 5.4 °C; GRK1 fold (increase in potency relative to paroxetine) (GRK1 [4]; relative to paroxetine): 6 fold; IC50 against PKA, in words (PKA): nanomolar
3 | CC1=C(C(=O)Nc2ccc3[nH]ncc3c2)C(c2ccc(F)cc2)NC(c2ccc(C(F)(F)F)nc2)=N1 (stereo not shown) [GSK317354A] | 2.29 | 23.2 | 3.3 | 49.0 | 11.4 | 27.3 | 0.6 | 45.9 | 0.5 | > 1000 | 2.51 | 0.50 | 631 | 0.20 | 200 | 0.109 |  | 3.78 | 6 | less potent than GSK180736A against GRK2 (GRK2 [5]; relative to GSK180736A): about 1 log; increase in potency of ROCK inhibition (ROCK1): 10 fold
